The record followed here is EP0489933A1, “BILE ALCOHOL AND DRUG CONTAINING THE SAME AS ACTIVE INGREDIENT” (TSUMURA CO., LTD., priority 1990, dated 1992).

One assay deals with male rats of SD line. Put plainly: High cholesterol feed: blood viscosity, serum total cholesterol, triglyceride, GOT. The class given is in vivo. The following applies: 100 mg/kg/day, p.o., 4 days. The protocol: In this experiment, 5-week-old male rats of SD line (5 individuals per one group) were used after rearing them for 1 week using normal feed, and each compound of the present invention (100 mg/kg) was administered orally once a day for 4 days. Simultaneously with the commencement of the administration, the normal feed was replaced by a high cholesterol feed. After completion of the administration, they were subjected to fasting treatment for 24 hours. Thereafter, each rat was subjected to ventrotomy under anesthesia with Nembutal® (Dainabot Co., Ltd.; 50 mg/kg, i.p.) to collect blood from abdominal aorta, and the collected blood sample was checked for its blood viscosity using a viscometer (Biolyzer, Tokyo Keiki Co., Ltd.). At the same time, total cholesterol (Wako Pure Chemical Industries, Ltd.; Cholesterol E-test wako), triglyceride (Wako Pure Chemical Industries, Ltd.; Triglyceride G-test wako) and GOT (Wako Pure Chemical Industries, Ltd.; GOT-UV test-wako) in serum samples were measured.

A further assay concerns male rats of SHR line. Put plainly: Blood pressure in SHR rats. The class given is in vivo. The following applies: 10 mg/kg, p.o., 2 weeks. As for the experimental part: In this experiment, 12-week-old male rats of SHR line (5 to 6 individuals per one group) were used after rearing them for 1 week with normal feed. Oral administration of each test drug has been carried out for 2 weeks and then blood pressure (mmHg) was measured using a small animal hemomanometer (UR-1000).

Assay [1] can be described thus: Blood plasma clotting time after oral administration. The class given is in vivo, male rats of Wistar line. Conditions: 30 mg/kg, p.o.; blood collected 90 minutes after administration; calcium chloride, 37°C. As for the experimental part: In this experiment, 9-week-old male rats of Wistar line (5 to 6 individuals per one group) were used after rearing them for 1 week with normal feed. After 24 hours of fasting, each test drug was administered orally and, 90 minutes thereafter, blood sample was collected from lower abdominal vena cava of each rat under anesthesia with Nembutal® (1 ml/kg, i.p.). Blood samples obtained in this way were checked for their blood clotting time and erythrocyte deformability.
Measuring procedures are as follows.
Blood clotting time ... Collected blood sample is centrifuged at 3,500 rpm for 10 minutes to obtain blood plasma. The blood plasma is pre-incubated for 1 minute in a water bath controlled at 37°C, mixed with calcium chloride and then shaken at 20 second intervals to measure a time required for its clotting.

`CC(CCC1OCC1CO)C1CCC2C3C(O)CC4CC(O)CCC4(C)C3CC(O)C12C` [Example 3, (24R)-(25S)-(+)-24,26-epoxy-5β-cholestane-3α,7α,12α,27-tetrol]: in the assay with male rats of SD line, the “GOT ±S.E.” value came to 140 ± 10 IU/ℓ, the “Total Cholesterol ±S.E.” value worked out at 445 ± 65 mg/dL and the “Triglyceride ±S.E.” value amounted to 90 ± 39 mg/dL. Also, in the assay on male rats of SHR line, the “Blood Pressure ±S.E. Average” value was 150 ± 3.7 mmHg and the “Blood Pressure ±S.E. Maximum” value is reported as 200 ± 7.7 mmHg. In addition, in assay [1], the “Plasma Clotting Time ± S.E.” value stood at 195 ± 1.9 s.
In the case of `C[C@H](CCCC(CO)CO)[C@H]1CC[C@H]2[C@@H]3[C@H](O)C[C@@H]4C[C@H](O)CC[C@]4(C)[C@H]3C[C@H](O)[C@]12C` [Example 6, 3α,7α,12α,26,27-pentahydroxy-5β-cholestane], in the assay with male rats of SD line, the “GOT ±S.E.” value is reported as 143 ± 8 IU/ℓ, the “Total Cholesterol ±S.E.” value amounted to 391 ± 70 mg/dL and the “Triglyceride ±S.E.” value came out at 99 ± 41 mg/dL. In addition, in the assay with male rats of SHR line, the “Blood Pressure ±S.E. Average” value is on record as 131 ± 3.7 mmHg and the “Blood Pressure ±S.E. Maximum” value was found to be 178 ± 3.3 mmHg.
The like results for `C[C@H](CCCC(CO)CO)[C@H]1CC[C@H]2[C@@H]3[C@H](O)C[C@H]4C[C@H](O)CC[C@]4(C)[C@H]3C[C@H](O)[C@]12C` [Example 7, 3α,7α,12α,26,27-pentahydroxy-5α-cholestane] were, in that order, 138 ± 18 IU/ℓ, 385 ± 58 mg/dL, 92 ± 31 mg/dL, 155 ± 3.6 mmHg and 198 ± 3.7 mmHg.
With `C[C@H](CC[C@H](O)C(CO)CO)[C@H]1CC[C@H]2[C@@H]3[C@H](O)C[C@@H]4C[C@H](O)CC[C@]4(C)[C@H]3C[C@H](O)[C@]12C` [Example 8, (24S)-3α,7α,12α,24,26,27-hexahydroxy-5β-cholestane], in the assay on male rats of SD line, the “GOT ±S.E.” value came out at 140 ± 13 IU/ℓ, the “Total Cholesterol ±S.E.” value is 410 ± 40 mg/dL and the “Triglyceride ±S.E.” value came to 87 ± 15 mg/dL. In addition, in the assay with male rats of SHR line, the “Blood Pressure ±S.E. Average” value is given as 151 ± 9.5 mmHg and the “Blood Pressure ±S.E. Maximum” value came to 180 ± 6.6 mmHg.
With `C[C@H](CC[C@H](O)[C@@H](C)CO)[C@H]1CC[C@H]2[C@@H]3[C@H](O)C[C@@H]4C[C@H](O)CC[C@]4(C)[C@H]3C[C@H](O)[C@]12C` [Example 9, (24S)-(25S)-3α,7α,12α,24,26-pentahydroxy-5β-cholestane], in the assay with male rats of SD line, the “GOT ±S.E.” value stood at 138 ± 8 IU/ℓ, the “Total Cholesterol ±S.E.” value amounted to 441 ± 51 mg/dL and the “Triglyceride ±S.E.” value came to 89 ± 41 mg/dL. In the assay with male rats of SHR line, the “Blood Pressure ±S.E. Average” value was found to be 150 ± 8.9 mmHg and the “Blood Pressure ±S.E. Maximum” value came out at 199 ± 5.4 mmHg.
The like results for `C[C@H](CC[C@H](O)[C@H](C)CO)[C@H]1CC[C@H]2[C@@H]3[C@H](O)C[C@@H]4C[C@H](O)CC[C@]4(C)[C@H]3C[C@H](O)[C@]12C` [Example 10, (24S)-(25R) 3α,7α,12α,24,26-pentahydroxy-5β-cholestane] were, in that order, 145 ± 7 IU/ℓ, 465 ± 59 mg/dL, 99 ± 29 mg/dL, 155 ± 9.5 mmHg and 191 ± 7.2 mmHg.
Regarding `C[C@H](CC[C@@H](O)[C@@H](C)CO)[C@H]1CC[C@H]2[C@@H]3[C@H](O)C[C@@H]4C[C@H](O)CC[C@]4(C)[C@H]3C[C@H](O)[C@]12C` [Example 11, (24R)-(25S)-3α,7α,12α,24,26-pentahydroxy-5β-cholestane], in the assay with male rats of SD line, the “GOT ±S.E.” value was 151 ± 15 IU/ℓ, the “Total Cholesterol ±S.E.” value came to 433 ± 71 mg/dL and the “Triglyceride ±S.E.” value stood at 110 ± 33 mg/dL. Further, in the assay with male rats of SHR line, the “Blood Pressure ±S.E. Average” value was determined as 141 ± 9.1 mmHg and the “Blood Pressure ±S.E. Maximum” value was determined as 188 ± 3.8 mmHg.
Consider `C[C@H](CO)[C@H](O)CC[C@@H](C)[C@H]1CC[C@H]2[C@@H]3[C@H](O)C[C@@H]4C[C@H](O)CC[C@]4(C)[C@H]3C[C@H](O)[C@]12C` [Example 12, (24R)-(25R)-3α,7α,12α,24,26-pentahydroxy-5β-cholestane], for which, in the assay on male rats of SD line, the “GOT ±S.E.” value is reported as 141 ± 17 IU/ℓ, the “Total Cholesterol ±S.E.” value is 475 ± 75 mg/dL and the “Triglyceride ±S.E.” value was found to be 115 ± 39 mg/dL. In the assay on male rats of SHR line, the “Blood Pressure ±S.E. Average” value was determined as 138 ± 9.5 mmHg and the “Blood Pressure ±S.E. Maximum” value came out at 173 ± 3.6 mmHg.
`C[C@H](CC[C@@H](O)C(CO)CO)[C@H]1CC[C@H]2[C@@H]3[C@H](O)C[C@@H]4C[C@H](O)CC[C@]4(C)[C@H]3C[C@H](O)[C@]12C` [Illustrative Example 1, (24R)-(+)-3α,7α,12α,24,26,27-hexahydroxy-5β-cholestane]: in the assay with male rats of SD line, the “GOT ±S.E.” value came to 128 ± 10 IU/ℓ, the “Total Cholesterol ±S.E.” value was found to be 390 ± 61 mg/dL and the “Triglyceride ±S.E.” value is 90 ± 16 mg/dL. In the assay with male rats of SHR line, the “Blood Pressure ±S.E. Average” value turned out to be 139 ± 8.5 mmHg and the “Blood Pressure ±S.E. Maximum” value stood at 205 ± 2.1 mmHg.
In the case of `C[C@H](CC[C@@H](O)CCO)[C@H]1CC[C@H]2[C@@H]3[C@H](O)C[C@@H]4C[C@H](O)CC[C@]4(C)[C@H]3C[C@H](O)[C@]12C` [Illustrative Example 2, 27-nor-(24R)-(+)-3α,7α,12α,24,26-pentahydroxy-5β-cholestane], in the assay on male rats of SD line, the “GOT ±S.E.” value stood at 141 ± 6 IU/ℓ, the “Total Cholesterol ±S.E.” value is 444 ± 61 mg/dL and the “Triglyceride ±S.E.” value is 101 ± 42 mg/dL. Moreover, in the assay on male rats of SHR line, the “Blood Pressure ±S.E. Average” value stood at 145 ± 8.1 mmHg and the “Blood Pressure ±S.E. Maximum” value is on record as 200 ± 3.5 mmHg. In assay [1], the “Plasma Clotting Time ± S.E.” value came to 201 ± 4.1 s.
With `C[C@H](CCCC(C)(O)CO)[C@H]1CC[C@H]2[C@@H]3[C@H](O)C[C@@H]4C[C@H](O)CC[C@]4(C)[C@H]3C[C@H](O)[C@]12C` (stereo partly drawn) [Illustrative Example 4, 5β-cholestane-3α,7α,12α,25,26-pentol], in the assay with male rats of SD line, the “GOT ±S.E.” value was found to be 116 ± 31 IU/ℓ, the “Total Cholesterol ±S.E.” value amounted to 450 ± 59 mg/dL and the “Triglyceride ±S.E.” value is 108 ± 38 mg/dL. For the same molecule, in the assay on male rats of SHR line, the “Blood Pressure ±S.E. Average” value was 144 ± 4.4 mmHg and the “Blood Pressure ±S.E. Maximum” value was 181 ± 2.5 mmHg.
As to `CC(C)C(O)CC[C@@H](C)[C@H]1CC[C@H]2[C@@H]3[C@H](O)C[C@@H]4C[C@H](O)CC[C@]4(C)[C@H]3C[C@H](O)[C@]12C` (stereo partly drawn) [Illustrative Example 5, 3α,7α,12α,24-tetrahydroxy-5β-cholestane], in the assay with male rats of SD line, the “GOT ±S.E.” value was 131 ± 21 IU/ℓ, the “Total Cholesterol ±S.E.” value was 453 ± 49 mg/dL and the “Triglyceride ±S.E.” value came to 110 ± 29 mg/dL. Further, in the assay on male rats of SHR line, the “Blood Pressure ±S.E. Average” value amounted to 151 ± 4.6 mmHg and the “Blood Pressure ±S.E. Maximum” value is recorded as 185 ± 7.7 mmHg.
Turning to `C[C@H](CCCO)[C@H]1CC[C@H]2[C@@H]3[C@H](O)C[C@@H]4C[C@H](O)CC[C@]4(C)[C@H]3C[C@H](O)[C@]12C` [Illustrative Example 6, 3α,7α,12α,24-tetrahydroxy-5β-cholan], in the assay on male rats of SD line, the “GOT ±S.E.” value turned out to be 136 ± 10 IU/ℓ, the “Total Cholesterol ±S.E.” value was determined as 451 ± 50 mg/dL and the “Triglyceride ±S.E.” value was determined as 107 ± 21 mg/dL. In the assay on male rats of SHR line, the “Blood Pressure ±S.E. Average” value is on record as 148 ± 8.4 mmHg and the “Blood Pressure ±S.E. Maximum” value stood at 187 ± 6.3 mmHg.
